In patent US11413278B2, “Compounds and methods for promoting stress resistance” (priority 2015, dated 2022):
Like-named read-outs stand apart in the source and are kept apart here.

Legend:
C. elegans = format: in vivo, Caenorhabditis elegans; details: in vivo
Description: The worms were treated with the small molecules in liquid, with H2O2 (500 μM final concentration) added on day 4 of adulthood, and scored for viability everyday
FUdR was used to block progeny production. The molecules were analyzed in 96-well plates, with 4 wells for each small molecule. Multiple control wells with DMSO (0.2% final concentration) were included. […] Day 1 adults were transferred onto mini-plates, seeded with OP50 bacteria (UV-irradiated, kanamycin-treated) and supplemented with small molecules (˜60 μM final concentration, 0.2% DMSO). Worms were scored every other day. Cumulative survival was analyzed using the STATA software (log-rank test). […] The worms were treated with the small molecules in liquid, with H2O2 (500 μM final concentration) added on day 4 of adulthood, and scored for viability every day.

[1] = Summary score for characterization of 38 core set hits; details: for D = Triple resistant: 2-point score, multiplex resistance (cadmium, MMS, H2O2); for S = Sum of Negative scores: human; for C = H2O2- & Cd-resistant: score, resistance to both H2O2 and cadmium
Description: 38 “core set” small molecules are listed and are assigned a score, based on the result for each individual characterization. From our small molecule screen for H2O2-resistance, we isolated 61 top hits. […] Specifically, a 2-point score was assigned to the most well-known and prominent longevity-related phenotypes, such as multiplex resistance, activation of FOXO3 and/or NRF2, and down-regulation of mTOR. Small molecules were also analyzed for their ability to extend C. elegans' lifespan in 4 to 6 independent trials, and the lifespan score scale is from 0 to 2: 0 for no obvious effects, 1 for lifespan extension observed in 2 trials, 2 for observed in more than 2 trials. Certain molecules appeared to have DNA-damaging effects and/or potential cell-toxicity in cultured human cells, and they receive a negative point.

WI-38 cells [2] = test: MMS resistance assay; format: cell-based, human; details: for fold induction at 10 µM: Homo sapiens, 12 h, normalized ATP measurement; for Assay 3: MMS-resistant / Assay 5: Triple resistant: YES/NO; for Assay 3: MMS-resistant: * indicates partial; for Assay 5: Triple resistant: H2O2, cadmium and MMS
Outline: (§1)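 Resistance to CdCl2 or MMS stress (12 h exposure) was scored in WI-38 fibroblasts pretreated with compound at 0.25–20 μM final, five doses, technical triplicates. MMS plates had compound added 24 h before MMS, after a shift to serum-free DMEM+2% BSA. Significance came from a global variance t-test over two independent runs.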

WI-38 cells [3] = test: Propidium iodide (PI) cell-death imaging upon H2O2 stress; format: cell-based, human; details: for Assay 7: H2O2-resistant, at 10 uM, validated by propidium iodide (PI) cell-death imaging: w/H2O2, 3 hrs/4 hrs/5 hrs, YES/NO; for cytotoxicity at 10 µM: Homo sapiens, WI-38
WI-38 cells [4] = test: CdCl2 (cadmium) resistance assay; format: cell-based, human; details: for fold induction at 10 µM: Homo sapiens, 12 h, normalized ATP measurement; for Assay 4: H2O2- & Cd-resistant / Assay 2: Cadmium-resistant: YES/NO; for Assay 2: Cadmium-resistant: * indicates partial
Outline: as §1

[5] = test system: human dermal fibroblast (HDF) primary cells; test: H2O2-resistance in primary human dermal fibroblasts; format: cell-based; details: for fold induction at 10 µM: Homo sapiens; for Assay 6: H2O2-resistant, at 10 uM, human dermal fibroblast (HDF) primary cells: YES/NO
WI-38 cells [6] = test: Long-term effects on cell viability (5 days, ATP; morphology, PI imaging); format: cell-based; details: 10 μM; for Luminescence signal for ATP measurement, day-1 Average / Luminescence signal for ATP measurement, day-2 Average / Luminescence signal for ATP measurement, day-3 Average / Luminescence signal for ATP measurement, day-4 Average / Luminescence signal for ATP measurement, day-5 Average: n = 6; for viability at 10 µM: Homo sapiens, WI-38, 120 h, DMSO ctrl = 100.0%, read-out: ATP luminescence by day-5 normalized; for Luminescence signal for ATP measurement, day-5 Average / viability at 10 µM: day-5; for O = Potential toxicity / Q = Potential toxicity: human, 5 days;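 for Luminescence signal for ATP measurement, day-2 Average: compounds at 10 µM with ATP read daily over 5 days of treatment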;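 for Luminescence signal for ATP measurement, day-3 Average: compounds at 10 µM with ATP read daily over 5 days of treatment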;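 for Luminescence signal for ATP measurement, day-4 Average: compounds at 10 µM with ATP read daily over 5 days of treatment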;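 for Luminescence signal for ATP measurement, day-5 Average: compounds at 10 µM with ATP read daily over 5 days of treatment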
[7] = Exp. 1, WI-38 cells, read-out: Exp. 1, under MMS stress treatment, at 10 uM (fold change)
[8] = Exp. 2, WI-38 cells, read-out: Exp. 2, under MMS stress treatment, at 10 uM (fold change)
[9] = score in summary of 38 core set hits
[10] = H2O2 3 hrs, 10 uM, n = 6, negative control 5.44% ± 0.79%, read-out: Percentage of propidium iodide-positive dead cells (under H2O2 stress treatment), 3 hrs
[11] = pre-treatment at 10 uM, 3.5 hours of H2O2, DMSO control 27.4% ± 6.5%, */**/*** = reduced by one/two/three standard deviations, read-out: Percentage of propidium iodide-positive dead cells (under H2O2 stress treatment), at 10 uM
[12] = Exp. 1, WI-38 cells, read-out: Exp. 1, under Cd2Cl2 stress treatment, at 10 uM (fold change)
[13] = Exp. 2, WI-38 cells, read-out: Exp. 2, under Cd2Cl2 stress treatment, at 10 uM (fold change)
[14] = WI-38 cells, 10 μM, both stressors
[15] = Experiment 1, HDF cells, read-out: Experiment 1, HDF cells (under H2O2 stress treatment), at 10 uM (fold change)
[16] = Experiment 2, HDF cells, read-out: Experiment 2, HDF cells (under H2O2 stress treatment), at 10 uM (fold change)
[17] = Batch 1, day-0 luminescence = 320956 ± 24708
[18] = Batch 2, day-0 luminescence = 229312 ± 17487

Compound | L = H2O2-resistance in worms (C. elegans) | N = H2O2-resistance in woms (C. elegans) | D = Triple resistant [1] | S = Sum of Negative scores [1] | C = H2O2- & Cd-resistant [1] | fold induction at 10 µM (WI-38 cells [2]; [7]) | fold induction at 10 µM (WI-38 cells [2]; [8]) | B = MMS resistant (WI-38 cells [2]; [9]) | B = MMS resistant (WI-38 cells [2]; summary score) | D = Triple resistant (WI-38 cells [2]; summary score) | Assay 7: H2O2-resistant, at 10 uM, validated by propidium iodide (PI) cell-death imaging (WI-38 cells [3]; 10 uM) | cytotoxicity at 10 µM (WI-38 cells [3]; [10]) [%] | cytotoxicity at 10 µM (WI-38 cells [3]; [11]) [%] | fold induction at 10 µM (WI-38 cells [4]; [12]) | fold induction at 10 µM (WI-38 cells [4]; [13]) | A = Cadmium resistant (WI-38 cells [4]; [9]) | A = Cadmium resistant (WI-38 cells [4]; summary score) | C = H2O2- & Cd-resistant (WI-38 cells [4]; summary score) | fold induction at 10 µM [5, 15] | fold induction at 10 µM [5, 16] | other results
COC(=O)CCc1sc2c(c1[N+](=O)[O-])NC(=O)CCC2 [O20] | 0 | 0 | 0 | 0 | 1 | 2.17 | 1.46 | 0 | 1 | 2 | YES | 3.28 | 9.4 | 6.37 | 4 | 1 | 1 | 1 | 1.08 | 63.9 | Assay 3: MMS-resistant (WI-38 cells [2]): YES; Assay 5: Triple resistant (WI-38 cells [2]): YES; CdCl2-resistant (WI-38 cells [4]): YES; H2O2- & CdCl2-resistant (WI-38 cells [4]): YES; CdCl2-resistant (WI-38 cells [4]; WI-38 cells, 10 μM): YES; H2O2- & CdCl2-resistant (WI-38 cells [4]; [14]): YES; Assay 4: H2O2- & Cd-resistant (WI-38 cells [4]): YES; Assay 2: Cadmium-resistant (WI-38 cells [4]): YES; Assay 6: H2O2-resistant, at 10 uM, human dermal fibroblast (HDF) primary cells [5]: YES; Luminescence signal for ATP measurement, day-1 Average (WI-38 cells [6]; [17]): 544305; Luminescence signal for ATP measurement, day-2 Average (WI-38 cells [6]; [17]): 770055; Luminescence signal for ATP measurement, day-3 Average (WI-38 cells [6]; [17]): 888893; Luminescence signal for ATP measurement, day-4 Average (WI-38 cells [6]; [17]): 997113; Luminescence signal for ATP measurement, day-5 Average (WI-38 cells [6]; [17]): 926888; viability at 10 µM (WI-38 cells [6]; Batch 1): 90.3%; O = Potential toxicity (WI-38 cells [6]): 1; Q = Potential toxicity (WI-38 cells [6]): 0
O=C(/C=C/c1cn(-c2ccccc2)nc1-c1cccnc1)c1ccccc1 [Gr-6B] | 0 | 0 | 0 | 0 | 1 | 2.12 | 1.22 | 0 | 1 | 2 | YES | 2.62 | 2.1 | 5.07 | 2.65 | 1 | 1 | 1 | 3.6 | 57.6 | Assay 3: MMS-resistant (WI-38 cells [2]): YES; Assay 5: Triple resistant (WI-38 cells [2]): YES; CdCl2-resistant (WI-38 cells [4]): YES; H2O2- & CdCl2-resistant (WI-38 cells [4]): YES; CdCl2-resistant (WI-38 cells [4]; WI-38 cells, 10 μM): YES; H2O2- & CdCl2-resistant (WI-38 cells [4]; [14]): YES; Assay 4: H2O2- & Cd-resistant (WI-38 cells [4]): YES; Assay 2: Cadmium-resistant (WI-38 cells [4]): YES; Assay 6: H2O2-resistant, at 10 uM, human dermal fibroblast (HDF) primary cells [5]: YES; Luminescence signal for ATP measurement, day-1 Average (WI-38 cells [6]; [17]): 467756; Luminescence signal for ATP measurement, day-2 Average (WI-38 cells [6]; [17]): 641901; Luminescence signal for ATP measurement, day-3 Average (WI-38 cells [6]; [17]): 736245; Luminescence signal for ATP measurement, day-4 Average (WI-38 cells [6]; [17]): 969598; Luminescence signal for ATP measurement, day-5 Average (WI-38 cells [6]; [17]): 953988; viability at 10 µM (WI-38 cells [6]; Batch 1): 92.9%; O = Potential toxicity (WI-38 cells [6]): 0; Q = Potential toxicity (WI-38 cells [6]): 0
O=C(Nc1cccc(C(F)(F)F)c1)c1ccc([N+](=O)[O-])o1 [Gr-1E] | 0 | 0 | 0 | 0 | 1 | 0.72 | 1.21 | 0 | 0 | 0 | YES | 1.68 | 18.8 | 6.69 | 8.82 | 1 | 1 | 1 | 1.4 | 31 | Assay 3: MMS-resistant (WI-38 cells [2]): NO *; Assay 5: Triple resistant (WI-38 cells [2]): YES; cytotoxicity at 10 µM (WI-38 cells [3]; H2O2 4 hrs, 10 uM, n = 6, negative control 16.81% ± 1.42%, read-out: Percentage of propidium iodide-positive dead cells (under H2O2 stress treatment), 4 hrs): 2.95%; cytotoxicity at 10 µM (WI-38 cells [3]; H2O2 5 hrs, 10 uM, n = 6, negative control 22.50% ± 1.53%, read-out: Percentage of propidium iodide-positive dead cells (under H2O2 stress treatment), 5 hrs): 3.44%; CdCl2-resistant (WI-38 cells [4]): YES; H2O2- & CdCl2-resistant (WI-38 cells [4]): YES; CdCl2-resistant (WI-38 cells [4]; WI-38 cells, 10 μM): YES; H2O2- & CdCl2-resistant (WI-38 cells [4]; [14]): YES; Assay 4: H2O2- & Cd-resistant (WI-38 cells [4]): YES; Assay 2: Cadmium-resistant (WI-38 cells [4]): YES; Assay 6: H2O2-resistant, at 10 uM, human dermal fibroblast (HDF) primary cells [5]: YES; Luminescence signal for ATP measurement, day-1 Average (WI-38 cells [6]; [17]): 474558; Luminescence signal for ATP measurement, day-2 Average (WI-38 cells [6]; [17]): 698358; Luminescence signal for ATP measurement, day-3 Average (WI-38 cells [6]; [17]): 788420; Luminescence signal for ATP measurement, day-4 Average (WI-38 cells [6]; [17]): 1038011; Luminescence signal for ATP measurement, day-5 Average (WI-38 cells [6]; [17]): 1066135; viability at 10 µM (WI-38 cells [6]; Batch 1): 104%; O = Potential toxicity (WI-38 cells [6]): 0; Q = Potential toxicity (WI-38 cells [6]): 0
Nc1ccccc1S(=O)(=O)Nc1cccc2cccnc12 [Gr-3C] | 0 | 0 | 0 | 2 | 0 | 1.06 | 0.84 | 0 | 0 | 0 | YES | 5.13 | 3.1 | 0.06 | 0.4 | 0 | 0 | 0 | 6.59 | 1.69 | Assay 6: H2O2-resistant, at 10 uM, human dermal fibroblast (HDF) primary cells [5]: YES; Luminescence signal for ATP measurement, day-1 Average (WI-38 cells [6]; [18]): 190045; Luminescence signal for ATP measurement, day-2 Average (WI-38 cells [6]; [18]): 194191; Luminescence signal for ATP measurement, day-3 Average (WI-38 cells [6]; [18]): 270505; Luminescence signal for ATP measurement, day-4 Average (WI-38 cells [6]; [18]): 244033; Luminescence signal for ATP measurement, day-5 Average (WI-38 cells [6]; [18]): 265285; viability at 10 µM (WI-38 cells [6]; Batch 2): 47.7%; O = Potential toxicity (WI-38 cells [6]): 0; Q = Potential toxicity (WI-38 cells [6]): 1
